Columns and labels:
SYK kinase = target: T1, SYK kinase (Homo sapiens, UniProt P43405); experiment: SYK Assay (OMNIA Kinase Assay, SOX peptide fluorescence); format: biochemical; conditions: 1 mM ATP, 10 μM Omnia Peptide Substrate Tyr 7, 30° C., readings for 30 minutes; read-out: SYK Activities: IC50
T1 construct: purchased Invitrogen, Carlsbad
Procedure, shortened: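 The reaction was run at 30 °C with 1 mM ATP, 0.2 mM DTT and 10 μM Omnia Tyr 7 peptide (final) and started by adding SYK. Chelation-enhanced SOX fluorescence (ex 360/em 485 nm) was read every 30 s for 30 min. Reaction velocity versus inhibitor concentration was fitted sigmoidally for IC50.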

LRRK2 = LRRK2 (Homo sapiens, UniProt Q5S007); experiment: LRRK2-LRRK2 G2019S-Assay (LanthaScreen Eu Kinase Binding Assay); conditions: 5 nM LRRK2, 10 nM tracer 236, 2 nM EU-Anti-GST antibody, 1 h at RT; read-out: LRRK2 Activities: IC50
Procedure, shortened: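 In a TR-FRET tracer displacement assay, LRRK2 or its mutants at 5 nM were mixed with 2 nM Eu-anti-GST antibody and 10 nM tracer 236 in kinase buffer A for 1 h at RT. The 665/615 nm emission ratio was plotted against inhibitor concentration, and IC50 came from a variable-slope sigmoidal fit.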

Chain of LRRK2 (Q5S007 970-2527 limits assumed): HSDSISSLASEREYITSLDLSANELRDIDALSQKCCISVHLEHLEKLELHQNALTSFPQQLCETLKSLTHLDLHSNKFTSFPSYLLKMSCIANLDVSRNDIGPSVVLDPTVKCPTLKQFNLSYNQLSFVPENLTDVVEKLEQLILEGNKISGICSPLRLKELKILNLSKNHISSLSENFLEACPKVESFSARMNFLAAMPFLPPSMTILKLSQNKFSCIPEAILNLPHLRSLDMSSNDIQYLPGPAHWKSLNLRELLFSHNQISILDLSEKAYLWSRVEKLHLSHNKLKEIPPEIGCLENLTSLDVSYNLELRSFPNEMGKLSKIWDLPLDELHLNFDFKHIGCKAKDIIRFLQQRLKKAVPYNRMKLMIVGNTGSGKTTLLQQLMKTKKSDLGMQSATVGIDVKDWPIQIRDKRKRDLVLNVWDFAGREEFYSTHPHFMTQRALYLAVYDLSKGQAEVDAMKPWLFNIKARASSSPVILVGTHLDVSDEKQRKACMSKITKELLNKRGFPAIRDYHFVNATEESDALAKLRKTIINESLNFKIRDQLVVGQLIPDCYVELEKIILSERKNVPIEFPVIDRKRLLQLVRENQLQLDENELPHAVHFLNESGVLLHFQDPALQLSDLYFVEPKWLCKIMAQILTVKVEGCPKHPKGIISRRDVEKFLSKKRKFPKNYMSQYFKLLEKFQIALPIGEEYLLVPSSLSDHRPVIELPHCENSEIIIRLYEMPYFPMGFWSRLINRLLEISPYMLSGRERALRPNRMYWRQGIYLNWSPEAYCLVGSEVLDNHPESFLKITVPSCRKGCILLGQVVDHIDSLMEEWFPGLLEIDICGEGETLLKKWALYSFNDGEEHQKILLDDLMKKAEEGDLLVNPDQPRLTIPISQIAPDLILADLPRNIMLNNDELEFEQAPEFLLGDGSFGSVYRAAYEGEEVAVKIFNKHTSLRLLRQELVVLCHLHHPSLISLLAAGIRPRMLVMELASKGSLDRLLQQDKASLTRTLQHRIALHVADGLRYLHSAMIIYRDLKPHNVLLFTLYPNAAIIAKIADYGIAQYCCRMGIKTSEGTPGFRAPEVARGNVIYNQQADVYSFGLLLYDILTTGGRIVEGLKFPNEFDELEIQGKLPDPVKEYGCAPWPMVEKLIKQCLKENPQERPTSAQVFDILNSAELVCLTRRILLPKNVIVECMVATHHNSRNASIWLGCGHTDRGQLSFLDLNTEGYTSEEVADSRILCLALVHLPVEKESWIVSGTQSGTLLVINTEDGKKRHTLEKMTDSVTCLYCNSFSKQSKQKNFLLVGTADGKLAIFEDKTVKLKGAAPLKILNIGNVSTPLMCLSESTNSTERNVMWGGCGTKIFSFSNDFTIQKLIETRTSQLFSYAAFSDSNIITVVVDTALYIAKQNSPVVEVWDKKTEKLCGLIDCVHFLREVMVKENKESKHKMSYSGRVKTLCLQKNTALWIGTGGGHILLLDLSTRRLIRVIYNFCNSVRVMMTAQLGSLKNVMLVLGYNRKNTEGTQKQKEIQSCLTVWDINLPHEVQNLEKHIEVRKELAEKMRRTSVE

SMILES | IC50 (SYK kinase) [nM] | IC50 (LRRK2) [nM]
COc1cccc2nc(Nc3cnn(CC(=O)N(C)C)c3)c3[nH]ncc3c12 [Example 339, 2-(4-((9-methoxy-3H-pyrazolo[3,4-c]quinolin-4-yl)amino)-1H-pyrazol-1-yl)-N,N-dimethylacetamide] | 100 to 1000 | 10 to 100
CS(=O)(=O)c1ccc2nc(Nc3ccc4c(c3)NC(=O)CS4)c3n[nH]cc3c2c1 [Example 344, 6-((8-(methylsulfonyl)-2H-pyrazolo[3,4-c]quinolin-4-yl)amino)-2H-benzo[b][1,4]thiazin-3(4H)-one] | < 10 | 10 to 100
Brc1ccc2c(c1)nc(Nc1cnn(C3CCOCC3)c1)c1n[nH]cc12 [Example 348, 7-bromo-N-(1-(tetrahydro-2H-pyran-4-yl)-1H-pyrazol-4-yl)-2H-pyrazolo[3,4-c]quinolin-4-amine] | 10 to 100 | < 10
CC(=O)Nc1cc(Nc2nc3ccc(S(C)(=O)=O)cc3c3c[nH]nc23)ccc1N1CCN(C(C)=O)CC1 [Example 352, N-(2-(4-acetylpiperazin-1-yl)-5-((8-(methylsulfonyl)-2H-pyrazolo[3,4-c]quinolin-4-yl)amino)phenyl)acetamide] | 10 to 100 | 10 to 100
CO[C@H]1CCCC[C@H]1n1cc(Nc2nc3ccc(S(C)(=O)=O)cc3c3c[nH]nc23)cn1 [Example 353, N-(1-((1R,2S)-2-methoxycyclohexyl)-1H-pyrazol-4-yl)-8-(methylsulfonyl)-2H-pyrazolo[3,4-c]quinolin-4-amine] | 100 to 1000 | < 10

Next, values leading:

IC50 (SYK kinase) [nM] | IC50 (LRRK2) [nM] | SMILES
10 to 100 | 10 to 100 | CC(C(=O)O)n1cc(Nc2nc3ccc(S(C)(=O)=O)cc3c3c[nH]nc23)cn1 (stereo not shown) [Example 334, 2-(4-((8-(methylsulfonyl)-2H-pyrazolo[3,4-c]quinolin-4-yl)amino)-1H-pyrazol-1-yl)propanoic acid]
100 to 1000 | < 10 | COCC(COC)n1cc(Nc2nc3cccc(OC)c3c3cn[nH]c23)cn1 [Example 340, N-(1-(1,3-dimethoxypropan-2-yl)-1H-pyrazol-4-yl)-9-methoxy-3H-pyrazolo[3,4-c]quinolin-4-amine]
< 10 | 10 to 100 | CS(=O)(=O)c1ccc2nc(Nc3ccc(O)cc3)c3n[nH]cc3c2c1 [Example 349, 4-((8-(methylsulfonyl)-2H-pyrazolo[3,4-c]quinolin-4-yl)amino)phenol]
